Results on 1 molecule are retold here after patent US12286418B2, “Compounds and methods for treating or preventing bacterial infections” (priority 2019, dated 2025).

The target of one assay is OXA-10 (Pseudomonas aeruginosa, UniProt P14489). In words: Inhibition of other OXA enzymes (nitrocefin reporter): OXA-10. It is filed as biochemical. Here is the method:
(§1) Compounds were tested for inhibition of a given OXA enzyme from hydrolyzing nitrocefin using a Tecan plate reader. […] A control with no compound was included in each run. For each compound concentration, the velocity of nitrocefin hydrolysis was determined at 482 nm and fit to the Morrison equation. […] The average Ki of separate experiments, each of which consisted of duplicate runs, is reported and error was quantified as the standard deviation.
The high sequence diversity of class D β-lactamases has made it difficult to find a class-wide inhibitor. The inhibition activity of CDD-97 was tested against other OXA-enzymes of varying sequence identity, to assess its spectrum of activity (Table 2). OXA-10 is regarded as the canonical OXA, however it is not a major clinical threat as it mainly hydrolyzes penicillins. OXA-58 is another carbapenemase unable to hydrolyze extended-spectrum cephalosporins like OXA-48. Both OXA-48 and OXA-58 are predominantly found in gram-negative bacteria, however OXA-48 is prevalent in the Enterobacteriaceae family (mainly Klebsiella pneumoniae), while OXA-58 is found in the Moraxellaceae family (mainly Acintobacter baumannii). While K. pneumoniae is more rampant in the clinics and most OXA-mediated carbapenem is due to OXA-48, A. baumannii nosocomial infections are a growing issue. OXA-163 is an OXA-48 like enzyme also prevalent in Enterobacteriaceae. […]

In another assay the target is OXA-48 (Klebsiella pneumoniae, UniProt Q6XEC0). The assay can be described thus: OXA-48 inhibition assay using nitrocefin as reporter. Type of assay: biochemical. The arrangement: His-tag (N, cleaved yes); made in house; host or cells: E. coli BL21(DE3), pET28a. Here is the method:
Nitrocefin, a chromogenic β-lactam substrate, was used as a reporter in all inhibition assays with the various OXA enzymes and various compounds. Nitrocefin is not stable in aqueous solution long-term. For these assays, nitrocefin stocks were prepared in DMSO, stored at −20° C. and used within 2 weeks of dissolving. To avoid freeze-thawing, fresh stocks were always used. The Km of nitrocefin was determined prior to inhibition assays by performing steady state kinetics. Assays were performed using a DU800 spectrophotometer at room temperature in 50 mM HEPES pH 7.5, 15 mM NaHCO3, and 0.02% tween 20 buffer. Hydrolyzed nitrocefin was detected at 482 nm. For a single experiment, a series of at least 5 nitrocefin concentrations were tested against the given enzyme in duplicate and the initial velocities were measured and fit to the Michaelis-Menten equation. Experiments were repeated twice, and error reported is the standard error of the mean.
as §1
The activity of these derivatives was assessed using inhibition assays with purified OXA-48. Compounds were tested for the ability to inhibit OXA-48 from hydrolyzing nitrocefin, a chromogenic β-lactam substrate routinely used in β-lactamase inhibition assays. Nitrocefin contains a conjugated ring system that is readily hydrolyzed and produces a visible color shift from yellow to red upon hydrolysis (O'Callaghan, et al., 1972, Antimicrob. Agents Chemother. 1:283-288). The rate of nitrocefin hydrolysis in the presence of a constant amount of OXA-48 and increasing concentrations of a given compound of interest was monitored at 482 nm. These rates were plotted against compound concentration to determine the inhibition constant (Ki) against OXA-48. […] SPR was performed using 6×-His-OXA-48 enzyme that was amine-coupled on a Ni-NTA Chip. Meropenem, which covalently binds and inhibits OXA-48, was used as a positive control.

Sequence of OXA-10 (P14489 20-266): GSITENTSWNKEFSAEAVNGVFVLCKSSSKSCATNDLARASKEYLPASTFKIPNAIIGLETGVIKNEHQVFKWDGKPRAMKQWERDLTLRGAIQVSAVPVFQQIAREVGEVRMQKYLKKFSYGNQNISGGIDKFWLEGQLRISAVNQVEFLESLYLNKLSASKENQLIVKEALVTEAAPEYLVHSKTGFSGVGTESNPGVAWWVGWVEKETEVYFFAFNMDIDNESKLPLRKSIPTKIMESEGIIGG
Sequence of OXA-48 (Q6XEC0 23-265, looked up): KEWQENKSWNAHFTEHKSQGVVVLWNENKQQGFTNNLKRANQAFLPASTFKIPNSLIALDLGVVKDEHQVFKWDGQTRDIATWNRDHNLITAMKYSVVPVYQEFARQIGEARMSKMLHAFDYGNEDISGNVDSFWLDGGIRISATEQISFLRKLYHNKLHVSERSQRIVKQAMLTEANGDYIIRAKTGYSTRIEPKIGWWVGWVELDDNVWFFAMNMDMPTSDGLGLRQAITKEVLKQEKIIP

With `CCOc1ccccc1N1CCN(c2ncnc(N3CCC(C(=O)O)CC3)n2)CC1` [CDD-97, 1-(4-(4-(2-ethoxyphenyl)piperazin-1-yl)-1,3,5-triazin-2-yl)piperidine-4-carboxylic acid], the Ki (commonly the dissociation constant of the complex between target and ligand, obtained from inhibition or displacement) was 61 ± 27 µM on OXA-10 and 0.53 ± 0.08 µM on OXA-48 (purified OXA-48, nitrocefin hydrolysis, Morrison fit). In addition, the “Ki fold less potent than against OXA-48” value on OXA-10 (OXA-10 vs OXA-48) is on record as “about 100 fold”. Moreover, on OXA-48 (purified OXA-48, compared with CDD-97 where a derivative), the “potency/activity against OXA-48 in words” value is given as “sub-micromolar Ki”.
